Experimental data as given in patent US20110251253A1, “SOLID FORMS OF (R)-1-(2,2-DIFLUOROBENZO[D][1,3]DIOXOL-5-YL)-N-(1-(2,3-DIHYDROXYPROPYL)-6-FLUORO-2-(1-HYDROXY-2-METHYLPROPAN-2-YL)-1H-INDOL-5-YL) CYCLOPROPANECARBOXAMIDE” (VERTEX PHARMACEUTICALS INCORPORATED, priority 2010, published 2011).

Assay: Solubility of Compound 1 in solvents
Format: physicochemical

CC(C)(CO)c1cc2cc(NC(=O)C3(c4ccc5c(c4)OC(F)(F)O5)CC3)c(F)cc2n1C[C@@H](O)CO [Compound 1, (R)-1-(2,2-difluorobenzo[d][1,3]dioxol-5-yl)-N-(1-(2,3-dihydroxypropyl)-6-fluoro-2-(1-hydroxy-2-methylpropan-2-yl)-1H-indol-5-yl)cyclopropanecarboxamide]
solubility (acetonitrile, methanol, ethanol, isopropyl alcohol, acetone, organic solvent or mixture): > 20 mg/mL | solubility (organic solvent or mixture, first solvent, e.g. ethyl acetate, ethanol, isopropyl alcohol, or acetone): > 20 mg/mL | solubility (second solvent, for example heptane or water): < 1 mg/mL
